Here are results for six compounds from BindingDB's records for patent US9040727 (Shanghai Institute of Pharmaceutical Industry, 2015).

For the assay, the target named is Histone deacetylase 1 (Homo sapiens, UniProt Q13547). The experiment in a line: Inhibition Assay.
Histone deacetylase 1, sequence (Q13547 whole entry): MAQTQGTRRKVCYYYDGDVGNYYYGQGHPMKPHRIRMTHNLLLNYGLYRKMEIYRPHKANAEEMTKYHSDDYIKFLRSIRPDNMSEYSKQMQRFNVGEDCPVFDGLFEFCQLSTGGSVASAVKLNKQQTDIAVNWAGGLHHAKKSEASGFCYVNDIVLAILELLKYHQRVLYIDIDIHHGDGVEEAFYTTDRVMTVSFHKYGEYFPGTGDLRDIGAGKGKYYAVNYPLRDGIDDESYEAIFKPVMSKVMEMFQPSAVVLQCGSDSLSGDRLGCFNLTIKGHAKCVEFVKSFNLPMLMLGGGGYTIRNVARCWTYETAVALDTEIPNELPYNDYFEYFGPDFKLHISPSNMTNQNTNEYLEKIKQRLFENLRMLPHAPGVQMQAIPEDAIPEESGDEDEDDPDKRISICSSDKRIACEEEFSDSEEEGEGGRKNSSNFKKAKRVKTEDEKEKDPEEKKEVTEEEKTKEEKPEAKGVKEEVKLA
As for `Nc1ccccc1NC(=O)c1ccc(CNC(=O)c2cc3ccccc3[nH]2)cc1` [US9040727, V-5], it took 212 nM to reach half-maximal inhibition (IC50). That is a sub-micromolar value.

As for `Nc1ccccc1NC(=O)c1ccc(CNC(=O)c2cc3ccccc3o2)cc1` [US9040727, V-8], the half-inhibitory concentration (IC50) was found to be 732 nM. Compared with the last compound, the IC50 is about 3.5-fold higher.

With `Nc1ccc(F)cc1NC(=O)c1ccc(CNC(=O)c2cc3ccccc3o2)cc1` [US9040727, V-9], it took 178 nM to reach half-maximal inhibition (IC50).

`Nc1ccc(-c2cccs2)cc1NC(=O)c1ccc(CNC(=O)c2cc3ccccc3o2)cc1` [US9040727, V-10] showed an IC50 of 1610 nM.

The compound `Nc1ccc(-c2ccco2)cc1NC(=O)c1ccc(CNC(=O)c2nc3ccccc3[nH]2)cc1` [US9040727, V-14] showed an IC50 of 330 nM. This IC50 lies about 4.9-fold lower than the previous one.

`Nc1ccccc1NC(=O)c1ccc(CNC(=O)c2cc3cc(C(F)(F)F)ccc3[nH]2)cc1` [US9040727, V-20] registered an IC50 of 1010 nM.
